Experiment: Amount of clonazepam in blood, brain and skin after transdermal application (HPLC)
Conditions: rats
Experimental: In support of another embodiment of the present invention, a supporting experiment was conducted where the backs of 3 white male rats that weighed approximately 150 g. were shaved and the backs of the rats were shaved and washed with lukewarm water and approximately 25 cm^2 of the base of a transmembrane/transdermal penetration enhancer described in Example 14 was administered. The base contained 10 mg of clonazepam and after six hours from the time of the application, the rats were killed and blood, brain and skin were taken from the application area. The amount of clonazepam in the organs and tissues of the killed rats were identified by HPLC method.

[1] = base of Example 14 with 10 mg clonazepam on approx. 25 cm^2, six hours after application

In the case of `O=C1CN=C(c2ccccc2Cl)c2cc([N+](=O)[O-])ccc2N1` [clonazepam], the “amount of clonazepam in 1 cm^2 of the skin at the application area” value [1] is reported as 0.04 ± 0.002 mg, the “amount of clonazepam in 1 cm^3 of blood” value [1] is reported as 0.043 ± 0.002 mg and the “amount of clonazepam in 1 g of brain” value [1] is reported as 0.016 ± 0.001 mg. For the same compound, the “amount of penetrated/permeated clonazepam through 25 cm^2 application area” value (base of Example 14 with 10 mg clonazepam, during 6 hours) was 60 % of applied amount.

From US10245272B2, “Transmembrane penetration enhancer” (priority 2010, dated 2019)
